Reference: patent US11667602B2, “Compounds and their use” (AstraZeneca AB, priority 2020, dated 2023)
pEC50: −log10 of the molar value. Where two headings read alike, the source gives them in different places.

Biological target: T1, human RXFP1 (Homo sapiens, UniProt Q9HBX9)
T1 sequence (Q9HBX9 1-757): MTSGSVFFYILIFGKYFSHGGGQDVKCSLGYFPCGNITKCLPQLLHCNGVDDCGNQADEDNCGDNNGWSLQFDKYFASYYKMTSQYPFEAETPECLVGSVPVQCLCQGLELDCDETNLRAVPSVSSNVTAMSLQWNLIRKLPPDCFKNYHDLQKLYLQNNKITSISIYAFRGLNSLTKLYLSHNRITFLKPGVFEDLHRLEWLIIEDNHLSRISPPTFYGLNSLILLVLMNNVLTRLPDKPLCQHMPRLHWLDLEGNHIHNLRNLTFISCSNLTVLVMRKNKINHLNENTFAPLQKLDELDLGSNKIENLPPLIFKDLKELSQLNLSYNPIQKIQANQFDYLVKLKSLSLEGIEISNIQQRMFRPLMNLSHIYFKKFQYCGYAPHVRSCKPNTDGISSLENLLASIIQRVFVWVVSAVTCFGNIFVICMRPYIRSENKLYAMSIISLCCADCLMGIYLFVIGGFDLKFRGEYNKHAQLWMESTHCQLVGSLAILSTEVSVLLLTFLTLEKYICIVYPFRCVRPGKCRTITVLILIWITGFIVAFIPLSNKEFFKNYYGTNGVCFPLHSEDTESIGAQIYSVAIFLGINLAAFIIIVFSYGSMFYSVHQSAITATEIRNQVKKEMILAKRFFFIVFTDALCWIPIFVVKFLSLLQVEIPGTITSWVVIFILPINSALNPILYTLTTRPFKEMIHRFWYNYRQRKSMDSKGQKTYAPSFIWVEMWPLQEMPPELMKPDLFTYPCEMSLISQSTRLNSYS
Test: RXFP1 Hu cAMP (Test A)
Assay type: cell-based
Parameters: expressed in transfected cells; host or cells: Jump-In T-REx CHO-K1 cells (ThermoFisher), induced with 10 ng/ml doxycycline for 24 h
Method in brief: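 Competitive HTRF cAMP readout (2 h, room temperature) in CHO-K1 cells stably expressing human RXFP1, induced with 10 ng/ml doxycycline for 24 h; IBMX 0.5 mM final.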

[1] = RXFP1 Hu cAMP, read-out: Test A EC50

| Compound | Test A Sinf (RXFP1 Hu cAMP) | pEC50 [1] | pEC50 (Test A EC50, RXFP1 Hu cAMP) |
| --- | --- | --- | --- |
| COc1cc(F)c(O[C@H]2CC[C@@](CO)(C(=O)O)CC2)cc1C(=O)NC1CC(OC)CC1C(=O)NCC(C)(C)C (single isomer, unassigned) [Example 548, (1R,4s)-4-(2-Fluoro-4-methoxy-5-(((1S*,2R*,4R*)-4-methoxy-2-(neopentylcarbamoyl)cyclopentyl)carbamoyl)phenoxy)-1-(hydroxymethyl)cyclohexane-1-carboxylic acid] | 117% | 4.68 |  |
| COc1cc(F)c(O[C@H]2CC[C@](C)(CC(=O)O)CC2)cc1C(=O)N[C@@H]1[C@H]2CC[C@H](C2)[C@@H]1C(=O)NCC1(C)CCC1 [Example 477, 2-((1R,4r)-4-(2-Fluoro-4-methoxy-5-(((1S,2R,3S,4R)-3-(((1-methylcyclobutyl)methyl)carbamoyl)bicyclo[2.2.1]heptan-2-yl)carbamoyl)phenoxy)-1-methylcyclohexyl)acetic acid] | 84% |  |  |
| COc1cc(C#N)c(O[C@H]2CC[C@@](C)(C(=O)O)CC2)cc1C(=O)Nc1cc(Cl)ccc1C(=O)NCC1(c2ccccc2)CC1 [Example 158] | 118% | 6.96 |  |
| COc1cc(C#N)c(OCCCC(C)(C)C(=O)O)cc1C(=O)N[C@@H]1[C@H]2CC[C@H](C2)[C@@H]1C(=O)NCC1(C)CCC1 [Example 431] | 115% | 6.89 |  |
| COc1cc(F)c(O[C@H]2CC[C@@](CO)(C(=O)O)CC2)cc1C(=O)NC1C2CCC(O2)C1C(=O)NCC1(C)CCC1 (single isomer, unassigned) [Example 532, (1R,4s)-4-(2-Fluoro-4-methoxy-5-(((1S*,2S*,3R*,4R*)-3-(((1-methylcyclobutyl)methyl)carbamoyl)-7-oxabicyclo[2.2.1]heptan-2-yl)carbamoyl)phenoxy)-1-(hydroxymethyl)cyclohexane-1-carboxylic acid] | 104% | 6.85 |  |
| COc1cc(C#N)c(O[C@H]2CC[C@@](C)(C(=O)O)CC2)cc1C(=O)N[C@@H]1[C@H]2CC[C@H](C2)[C@@H]1C(=O)N[C@@H](C)C(C)(C)C [Example 119] | 99% | 6.25 |  |
| (1R,4s)-4-(2-Fluoro-4-methoxy-5-(((3S*,4R*)-4-(neopentylcarbamoyl)tetrahydrofuran-3-yl)carbamoyl)phenoxy)-1-(hydroxymethyl)cyclohexane-1-carboxylic acid [Example 579] | 120% |  |  |
| COC(=O)[C@]1(C(=O)O)CC[C@@H](Oc2cc(C(=O)N[C@@H]3[C@H]4CC[C@H](C4)[C@@H]3C(=O)NCC3(C)CCC3)c(OC(C)C)cc2F)CC1 [Example 485, (1R,4r)-4-(2-Fluoro-4-isopropoxy-5-(((1S,2R,3S,4R)-3-(((1-methylcyclobutyl)methyl)carbamoyl)bicyclo[2.2.1]heptan-2-yl)carbamoyl)phenoxy)-1-(methoxycarbonyl)cyclohexane-1-carboxylic acid] | 95% |  |  |
| COc1cc(F)c(-c2ccccc2CC(=O)O)cc1C(=O)N[C@H]1[C@@H](C(=O)Nc2cccc(S(=O)(=O)C(F)(F)F)c2)[C@@H]2C=C[C@H]1C2 (racemic) [Example 235] | 75% |  |  |
| COc1cc(F)c(O[C@H]2CC[C@@](C)(C(=O)O)CC2)cc1C(=O)N[C@@H]1[C@@H]2CC[C@@H](C2)[C@@H]1C(=O)Nc1cccc(S(=O)(=O)C(F)(F)F)c1 (racemic) [Example 367] | 110% | 8.49 |  |
| COc1cc(F)c(O[C@H]2CC[C@@](C)(C(=O)O)CC2)cc1C(=O)N[C@@H]1CCCCC[C@@H]1C(=O)Nc1cccc(S(=O)(=O)C(F)(F)F)c1 (racemic) [Example 354] | 95% | 7.96 |  |
| COc1cc(C#N)c(O[C@H]2CC[C@@](C)(C(=O)O)CC2)cc1C(=O)Nc1cc(Cl)ccc1C(=O)NC12CC(C1)C2 [Example 161] | 170% | 6.89 |  |
| COc1cc(F)c(O[C@H]2CC[C@@](C)(C(=O)O)CC2)cc1C(=O)N[C@@H]1[C@H]2CC[C@H](C2)[C@@H]1C(=O)N[C@H](C)C(F)(F)F [Example 597] | 106% | 6.40 |  |
| COc1cc(F)c(O[C@H]2CC[C@@](C)(C(=O)O)CC2)cc1C(=O)N[C@@H]1[C@H]2CC[C@H](C2)[C@@H]1C(=O)NCC1CC(F)(F)C1 [Example 620] | 93% | 6.16 |  |
| COc1cc(C#N)c(O[C@H]2CC[C@@](C)(C(=O)O)CC2)cc1C(=O)Nc1cc(C)ccc1C(=O)NCc1cccc(F)c1 [Example 166, (1s,4s)-4-(2-Cyano-5-((2-((3-fluorobenzyl)carbamoyl)-5-methylphenyl)carbamoyl)-4-methoxyphenoxy)-1-methylcyclohexane-1-carboxylic acid] | 137% | 6.24 |  |
| COc1cc(C#N)c(O[C@H]2CC[C@@](C)(C(=O)O)CC2)cc1C(=O)N[C@@H]1[C@H]2CC[C@H](C2)[C@@H]1C(=O)NCc1cc(C)ccc1C [Example 136] | 102% | 7.54 |  |
| COc1cc(F)c(-c2ccc(O)c(C(=O)O)c2)cc1C(=O)N[C@@H]1[C@H]2CC[C@H](C2)[C@@H]1C(=O)Nc1cccc(S(=O)(=O)C(F)(F)F)c1 (racemic) [Example 316, rac-2′-Fluoro-4-hydroxy-4′-methoxy-5′-(((1R,2S,3R,4S)-3-((3-((trifluoromethyl)sulfonyl)phenyl)carbamoyl)bicyclo[2.2.1]heptan-2-yl)carbamoyl)-[1,1′-biphenyl]-3-carboxylic acid] | 107% | 6.49 |  |
| COc1cc(F)c(O[C@H]2C[C@@H]3[C@H](C2)[C@H]3C(=O)O)cc1C(=O)N[C@@H]1[C@H]2CC[C@H](C2)[C@@H]1C(=O)NCC1(C)CCC1 (racemic) [Example 426, (1RS,3SR,5SR,6RS)-3-(2-Fluoro-4-methoxy-5-(((1S,2R,3S,4R)-3-(((1-methylcyclobutyl)methyl)carbamoyl)bicyclo[2.2.1]heptan-2-yl)carbamoyl)phenoxy)bicyclo[3.1.0]hexane-6-carboxylic acid] |  | < 4.40 |  |
| COc1cc(C#N)c(Oc2ccc(C(=O)O)cc2)cc1C(=O)N[C@@H]1[C@H]2CC[C@H](C2)[C@@H]1C(=O)NCC1(C)CCC1 [Example 483] | 92% | 6.21 |  |
| COc1cc(F)c(-c2ccc(C(=O)O)cc2)cc1C(=O)N[C@H]1[C@@H](C(=O)Nc2cc(F)cc(C#N)c2)[C@@H]2C=C[C@H]1C2 (racemic) [Example 310] |  | < 4.40 |  |
| COc1cc(C#N)c(O[C@H]2CC[C@@](C)(C(=O)O)CC2)cc1C(=O)N[C@@H]1[C@H]2CC[C@H](C2)[C@@H]1C(=O)NCCC(C)(C)C [Example 130] | 95% | 7.11 |  |
| COc1cc(F)c(OCc2cccc(C(C)(C)C(=O)O)c2)cc1C(=O)N[C@H]1[C@@H](C(=O)Nc2cccc(S(=O)(=O)C(F)(F)F)c2)[C@@H]2C=C[C@H]1C2 (racemic) [Example 454] | 76% |  |  |
| COc1c(F)cc(O[C@H]2CC[C@@](C)(C(=O)O)CC2)cc1C(=O)N[C@@H]1[C@H]2CC[C@H](C2)[C@@H]1C(=O)NC12CC(F)(C1)C2 [Example 390] | 95% | 6.74 |  |
| COc1cc(F)c(OC2CCCC(C(=O)O)C2)cc1C(=O)N[C@@H]1[C@H]2CC[C@H](C2)[C@@H]1C(=O)Nc1cccc(S(=O)(=O)C(F)(F)F)c1 (single isomer, unassigned) [Example 447] | 94% | 6.08 |  |
| COc1cc(F)c(-c2ccc(C(=O)O)c(N(C)C)c2)cc1C(=O)N[C@@H]1[C@H]2CC[C@H](C2)[C@@H]1C(=O)Nc1cccc(S(=O)(=O)C(F)(F)F)c1 [Example 239] | 100% | 6.89 |  |
| COc1cc(F)c(OC2CCCC(C(=O)O)C2)cc1C(=O)N[C@@H]1[C@H]2CC[C@H](C2)[C@@H]1C(=O)Nc1cccc(S(=O)(=O)C(F)(F)F)c1 (single isomer, unassigned) [Example 446] | 98% | 6.05 |  |
| COc1cc(F)c(O[C@H]2CC[C@@](C)(C(=O)O)CC2)cc1C(=O)N[C@@H]1[C@@H]2CC[C@@H](C2)[C@@H]1C(=O)NCC(C)(C)C [Example 370] | 102% |  | 7.62 |
